# Measured values taken from US8778985B2, “Inhibiting amyloid-beta peptide/rage interaction at the blood-brain barrier” (The University of Rochester, priority 2006, dated 2014).
# Tested on: APPsw+/− mice
# Experiment: Resting CBF by laser-doppler flowmetry, acute FPS2 treatment of APPsw+/− mice
# Assay type: in vivo
# Conditions: 1 mg/kg intravenous bolus, 7-9 months old mice
# Procedure: Cerebral blood flow changes expressed as a percentage of baseline recorded over a 90 min period in mice administered FPS2 (filled triangle) or vehicle (filled square). FPS2 (1 mg/kg) was administered intravenously (arrow) as a bolus in 7-9 months old mice. Values are means±s.e.m, n=3 per group.
# APPsw^+/− mice were treated with FPS2 (1 mg/kg) or with vehicle daily by intraperitoneal injection for two months starting at 8 months old. At the end of the treatment period functional changes in cerebral blood flow (CBF) to brain activation, and memory tests were determined. Brain and plasma Aβ levels were also determined in FPS2 and vehicle treated mice. […]
# Compounds were synthesized in parallel using semiautomated chemical reactions. […] Purity was assessed by reverse-phase gradient HPLC. […] After two months of treatment, (i) the cerebral blood flow response to brain activation (whisker stimulation) was measured and (ii) behavioral tests including operant learning, novel object location (NOL), and novel object recognition (NOR) were performed. After these functional tests, the mice were sacrificed and their brains analyzed for Aβ40, Aβ42, and amyloid levels. • CBF response to brain activation. The CBF response to vibrissal stimulation in anesthetized APPsw^+/− mice was measured by using laser-doppler flowmetry (Transonic Systems, BLF 21 D). […]
smiles,measurement,value
"CC(CC(=O)NCCCN(C(=O)c1cc([N+](=O)[O-])cc([N+](=O)[O-])c1)c1ccccc1)CC(C)(C)C (centres unmarked) [FPS2, 3,5-dinitro-N-phenyl-N-[3-[(3,5,5-trimethyl-1-oxohexyl)amino]propyl]-(9Cl)-benzamide]",time of peak of resting CBF increase,25 to 30 min
same,transient increase of resting CBF,about 35%
